Source: patent publication US6673780B2, “Sulfoxide and bis-sulfoxide compounds and compositions for cholesterol management and related uses” (Esperion Therapeutics, Inc., priority 2000, dated 2004)

Columns and labels:
obese female Zucker rats = assay: Two weeks of daily oral gavage treatment in chow-fed obese female Zucker rats; type: in vivo, rat; details: 100 mg/kg daily oral gavage; for ratio of HDL/non-HDL cholesterol: pretreatment 2.70; for increase of total serum cholesterol: vs pretreatment
Experimental: Dosing vehicle of Compound A (100 mg/kg) was administered to 9-10 week old female obese Zucker rats (i.e. the fa/fa or leptin receptor deficient rat) daily for 14 days in the morning by oral gavage in 1.5 percent carboxymethylcellulose/0.2 percent […]. Tail vein blood for glucose determinations (without anesthesia) and orbital blood samples for serum (with anestehesia for all other determinations) were obtained following a 6 hour fast prior to the initial dose and after one and two weeks of dosing.
Blood serum were assayed for insulin, non-esterified fatty acids, […], total cholesterol, and triglycerides (FIG. 2). Glucose was determined in whole blood (Table 1). Blood serum was also used to produce lipoprotein cholesterol profiles (FIG. 2), and used to determine VLDL plus LDL cholesterol combined (also referred to as apoB containing lipoprotein cholesterol or non-HDL cholesterol), HDL cholesterol, and the ratio of HDL cholesterol to that of VLDL plus LDL cholesterol (FIG. 2). In addition, the effect of Compound A on weight gain after 14 days and the liver to body weight ratio at sacrifice are shown in FIG. 2.

rat hepatocyte cells = assay: 14C-acetate incorporation into saponified and non-saponified lipids in hepatocytes; type: cell-based; details: 30 μM; 14C-acetate labeling 4 hr; relative to vehicle control
Experimental: Washout buffer containing; 149 mM sodium chloride, 9.2 mM sodium N-2-hyroxyethylpiperazine-N′-2-ethanesulfonic acid, 1.7 mM fructose, 0.5 mM EGTA, 10 U/mL heparin at pH 7.5 and digestion buffer containing; 6.7 mM potassium chloride, 143 mM sodium chloride, 9.2 mM sodium N-2-hyroxyethylpiperazine-N′-2-ethanesulfonic acid, 5 mM calcium chloride-dihydrate, 1.7 mM fructose, 0.2% bovine serum albumin, 100 U/mL collagenase Type I, 93 U/mL Hyaluronidase, 160 BAEE/mL trypsin inhibitor at pH 7.5 were prepared. Solutions were oxygenate prior to perfusion. Wash buffer containing Dulbecco's Modified Eagle Medium (DMEM) containing 4.5 gm/L D-glucose, 2 mM GlutMax-1, 0.2% BSA, 5% fetal bovine serum (FBS), […], 1.2 μM hydrocortisone and DMEM+HS solution containing DMEM, 2 mM GlutMax-1, 20 nM delta-antinolevulinic acid, 17.4mM MEM non-essential amino acids, 20% FBS, 12 nM insulin and 1.2 μM hydrocortisone was prepared. DMEM solution containing DMEM, 2 mM GlutMax-1, 20 nM delta-aminolevulinic acid and 17.4 mM MEM non-essential amino acids were prepared. Male Sprague-Dawley rats weighing 125-250 gms were maintained on a standard rodent chow diet and freely given water. On the evening prior to cell isolation, selected healthy animals were fed restricted. […] The cell concentration was determined in several fields on the hemocytometer. […]

With `CC(C)(CO)CCCC[S+]([O-])CCCCC(C)(C)CO` [Compound A, 6-(5,5-Dimethyl-6-hydroxy-hexane-1-sulfinyl)-2,2-dimethyl-hexan-1-ol] the “blood glucose levels, pretreatment versus posttreatment” value (obese female Zucker rats; after one and two weeks, 6 hour fast) was “similar”, the “increase in HDL cholesterol” value (obese female Zucker rats; after one week of treatment) was 2.2 fold and the “increase of non-HDL cholesterol (VLDL plus LDL cholesterol)” value (obese female Zucker rats; after one week of treatment) was 38%. For the same compound, the “reduction of serum triglycerides” value (obese female Zucker rats; after one week of treatment) was 48%, the “ratio of HDL/non-HDL cholesterol” value (obese female Zucker rats; after one week of treatment) was 3.84 and the “increase of total serum cholesterol” value (obese female Zucker rats; after one week of treatment) was 98%. The “increase in HDL cholesterol” value (obese female Zucker rats; after two weeks of treatment) was 3.1 fold, the “increase of non-HDL cholesterol (VLDL plus LDL cholesterol)” value (obese female Zucker rats; after two weeks of treatment) was 62% and the “reduction of serum triglycerides” value (obese female Zucker rats; after two weeks of treatment) was 42%. The “ratio of HDL/non-HDL cholesterol” value (obese female Zucker rats; after two weeks of treatment) was 4.97, the “increase of total serum cholesterol” value (obese female Zucker rats; after two weeks of treatment) was 74% and the “serum β-hydroxy butyrate” value (obese female Zucker rats; after two weeks, elevated from 2.35 pretreatment) was 3.94 mg/dL. For the same compound, the “serum non-esterified fatty acids” value (obese female Zucker rats; after two weeks, reduced from 2.28 pretreatment) was 0.74 mmol/L, the “reduction of rate of non-saponifiable lipid synthesis” value (rat hepatocyte cells) was 54% and the “reduction of rate of saponifiable lipid synthesis” value (rat hepatocyte cells) was 25%.
